According to patent US20240246942A1, “KINASE INHIBITORS FOR THE TREATMENT OF NEURODEGENERATIVE DISEASES” (priority 2020, published 2024):

How the values were obtained:
Experiment in all cases: biochemical
[1] = target: T1, panel of 374 wild-type kinases (Homo sapiens, UniProt P45985); details: read-out: % Enzyme Activity (relative to DMSO controls), MKK4
T1 construct: purchased Reaction Biology Corporation
T1 sequence (P45985 1-399): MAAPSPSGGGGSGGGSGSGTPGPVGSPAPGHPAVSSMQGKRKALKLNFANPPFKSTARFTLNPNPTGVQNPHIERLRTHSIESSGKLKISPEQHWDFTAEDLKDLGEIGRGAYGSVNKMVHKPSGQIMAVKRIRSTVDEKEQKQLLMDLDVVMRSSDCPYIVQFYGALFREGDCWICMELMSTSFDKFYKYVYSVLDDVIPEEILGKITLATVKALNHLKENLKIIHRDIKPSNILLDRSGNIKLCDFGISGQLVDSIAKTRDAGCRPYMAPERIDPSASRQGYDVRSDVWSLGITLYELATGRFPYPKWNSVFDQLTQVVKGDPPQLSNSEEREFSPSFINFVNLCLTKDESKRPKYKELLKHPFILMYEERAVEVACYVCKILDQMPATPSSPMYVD

[2] = target: T2, panel of 374 wild-type kinases (Homo sapiens, UniProt Q96BR1); details: read-out: % Enzyme Activity (relative to DMSO controls), kinase SGK3/SGKL
T2 construct: purchased Reaction Biology Corporation
T2 sequence (Q96BR1 1-496): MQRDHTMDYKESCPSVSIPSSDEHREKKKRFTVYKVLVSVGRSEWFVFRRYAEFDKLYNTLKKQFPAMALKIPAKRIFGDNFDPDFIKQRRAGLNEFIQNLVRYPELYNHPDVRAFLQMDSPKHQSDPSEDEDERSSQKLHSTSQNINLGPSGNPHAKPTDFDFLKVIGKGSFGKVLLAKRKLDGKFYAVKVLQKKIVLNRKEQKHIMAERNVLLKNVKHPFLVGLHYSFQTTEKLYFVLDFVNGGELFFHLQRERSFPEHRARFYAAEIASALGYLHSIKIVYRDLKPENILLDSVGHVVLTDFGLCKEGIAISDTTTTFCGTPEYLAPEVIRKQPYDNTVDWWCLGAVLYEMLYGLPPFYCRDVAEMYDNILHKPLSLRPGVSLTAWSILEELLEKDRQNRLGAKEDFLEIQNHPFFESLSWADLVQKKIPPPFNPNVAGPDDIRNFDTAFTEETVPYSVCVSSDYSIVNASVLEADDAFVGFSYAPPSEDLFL

[3] = target: T3, panel of 374 wild-type kinases (Homo sapiens, UniProt Q8WTQ7); details: for remaining activity at 5 µM: read-out: % Enzyme Activity (relative to DMSO controls), GRK7
T3 construct: purchased Reaction Biology Corporation
T3 sequence (Q8WTQ7 1-553): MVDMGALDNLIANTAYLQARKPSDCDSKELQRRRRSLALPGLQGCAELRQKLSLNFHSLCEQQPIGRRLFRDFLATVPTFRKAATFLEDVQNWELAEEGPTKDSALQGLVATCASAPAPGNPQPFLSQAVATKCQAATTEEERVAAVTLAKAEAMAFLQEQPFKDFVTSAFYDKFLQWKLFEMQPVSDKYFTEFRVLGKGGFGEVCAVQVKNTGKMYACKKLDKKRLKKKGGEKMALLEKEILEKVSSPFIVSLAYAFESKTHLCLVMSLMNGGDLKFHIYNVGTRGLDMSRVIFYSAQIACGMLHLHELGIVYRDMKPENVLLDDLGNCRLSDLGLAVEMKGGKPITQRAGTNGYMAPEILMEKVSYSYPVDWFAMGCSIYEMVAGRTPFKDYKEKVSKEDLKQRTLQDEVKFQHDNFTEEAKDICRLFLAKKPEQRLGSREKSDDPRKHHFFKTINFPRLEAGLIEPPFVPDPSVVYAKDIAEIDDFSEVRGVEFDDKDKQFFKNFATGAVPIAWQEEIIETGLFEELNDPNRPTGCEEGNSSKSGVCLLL

[4] = target: T4, panel of 374 wild-type kinases (Homo sapiens, UniProt P49841); details: read-out: % Enzyme Activity (relative to DMSO controls), GSK3b
T4 construct: purchased Reaction Biology Corporation
T4 sequence (P49841 whole entry): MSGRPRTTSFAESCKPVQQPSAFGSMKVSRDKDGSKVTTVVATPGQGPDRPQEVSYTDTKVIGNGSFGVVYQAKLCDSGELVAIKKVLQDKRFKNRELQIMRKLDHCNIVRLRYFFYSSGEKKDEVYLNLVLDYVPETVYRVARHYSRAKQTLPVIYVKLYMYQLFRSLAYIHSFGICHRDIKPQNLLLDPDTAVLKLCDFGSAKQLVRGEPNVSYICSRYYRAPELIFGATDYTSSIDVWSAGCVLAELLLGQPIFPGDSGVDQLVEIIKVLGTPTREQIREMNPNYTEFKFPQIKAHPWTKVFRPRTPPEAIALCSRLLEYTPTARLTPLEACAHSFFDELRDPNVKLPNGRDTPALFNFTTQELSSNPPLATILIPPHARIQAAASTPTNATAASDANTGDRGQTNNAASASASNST

[5] = target: T5, panel of 374 wild-type kinases (Homo sapiens, UniProt P21709); details: read-out: % Enzyme Activity (relative to DMSO controls), EPHA1
T5 construct: purchased Reaction Biology Corporation
T5 sequence (P21709 26-976): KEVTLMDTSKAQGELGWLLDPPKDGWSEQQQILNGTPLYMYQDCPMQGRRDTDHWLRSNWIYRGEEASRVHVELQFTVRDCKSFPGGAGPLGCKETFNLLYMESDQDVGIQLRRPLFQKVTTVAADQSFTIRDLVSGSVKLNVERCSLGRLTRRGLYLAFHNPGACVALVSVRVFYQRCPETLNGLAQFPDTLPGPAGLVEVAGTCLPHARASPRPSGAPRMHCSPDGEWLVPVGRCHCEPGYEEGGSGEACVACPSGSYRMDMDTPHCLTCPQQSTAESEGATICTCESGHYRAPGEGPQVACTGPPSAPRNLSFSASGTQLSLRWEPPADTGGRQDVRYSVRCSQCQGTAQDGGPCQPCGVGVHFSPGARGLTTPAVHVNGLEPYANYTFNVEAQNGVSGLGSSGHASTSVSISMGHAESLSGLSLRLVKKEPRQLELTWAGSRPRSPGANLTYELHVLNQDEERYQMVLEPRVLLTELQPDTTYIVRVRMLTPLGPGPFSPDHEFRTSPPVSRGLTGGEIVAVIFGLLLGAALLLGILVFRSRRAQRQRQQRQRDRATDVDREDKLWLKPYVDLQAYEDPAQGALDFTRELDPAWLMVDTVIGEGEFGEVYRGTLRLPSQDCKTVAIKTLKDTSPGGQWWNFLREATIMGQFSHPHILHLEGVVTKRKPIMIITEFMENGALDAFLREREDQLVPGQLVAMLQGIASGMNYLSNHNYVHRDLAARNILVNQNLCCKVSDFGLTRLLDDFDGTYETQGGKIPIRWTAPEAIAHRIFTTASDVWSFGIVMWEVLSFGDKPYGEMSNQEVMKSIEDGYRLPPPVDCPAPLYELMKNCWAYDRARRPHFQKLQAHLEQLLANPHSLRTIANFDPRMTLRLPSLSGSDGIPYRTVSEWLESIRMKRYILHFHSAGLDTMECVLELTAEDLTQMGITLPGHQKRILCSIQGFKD

[6] = target: T6, panel of 374 wild-type kinases (Homo sapiens, UniProt Q00537); details: read-out: % Enzyme Activity (relative to DMSO controls), CDK17/cyclin Y (PCTK2)
T6 construct: purchased Reaction Biology Corporation
T6 sequence (Q00537 whole entry): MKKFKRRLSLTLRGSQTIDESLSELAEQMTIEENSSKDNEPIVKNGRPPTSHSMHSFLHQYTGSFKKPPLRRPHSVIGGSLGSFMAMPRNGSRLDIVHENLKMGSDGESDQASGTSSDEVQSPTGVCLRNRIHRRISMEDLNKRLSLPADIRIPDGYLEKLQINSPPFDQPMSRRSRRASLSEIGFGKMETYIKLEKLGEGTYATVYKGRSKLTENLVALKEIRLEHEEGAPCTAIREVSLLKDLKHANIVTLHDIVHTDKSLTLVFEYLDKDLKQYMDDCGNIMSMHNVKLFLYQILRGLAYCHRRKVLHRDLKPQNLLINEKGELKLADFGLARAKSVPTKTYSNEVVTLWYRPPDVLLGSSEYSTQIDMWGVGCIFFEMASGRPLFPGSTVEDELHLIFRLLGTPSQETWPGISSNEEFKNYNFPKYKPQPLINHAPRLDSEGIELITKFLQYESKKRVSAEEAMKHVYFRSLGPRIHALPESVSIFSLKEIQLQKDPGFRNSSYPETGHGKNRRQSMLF

For `O=C(Nc1cnn(-c2csc(C(=O)NC3COC3)c2)c1)Nc1c(F)cccc1Cl` [Compound 25, 4-(4-(3-(2-chloro-6-fluorophenyl)ureido)-1H-pyrazol-1-yl)-N-(oxetan-3-yl)thiophene-2-carboxamide], the remaining activity at 5 µM [1] was 133%, the remaining activity at 5 µM [2] was 95.3% and the remaining activity at 5 µM [3] was 94%. The remaining activity at 5 µM [4] was 95.7%, the remaining activity at 5 µM [5] was 88.4% and the remaining activity at 5 µM [6] was 96%.
In the case of `O=C(Nc1cnn(-c2csc(C(=O)NC3COC3)c2)c1)Nc1ccccc1Cl` [Compound 17, 4-(4-(3-(2-chlorophenyl)ureido)-1H-pyrazol-1-yl)-N-(oxetan-3-yl)thiophene-2-carboxamide], the remaining activity at 5 µM [1] is reported as 113%, the remaining activity at 5 µM [2] is reported as 93.8% and the remaining activity at 5 µM [3] is reported as 96.4%. For the same compound, the remaining activity at 5 µM [4] was 95%, the remaining activity at 5 µM [5] was 99.1% and the remaining activity at 5 µM [6] was 106%.
`Cc1sc(C(=O)NC2COC2)cc1-n1cc(NC(=O)Nc2c(F)cccc2Cl)cn1` [Compound 27, 4-(4-(3-(2-chloro-6-fluorophenyl)ureido)-1H-pyrazol-1-yl)-5-methyl-N-(oxetan-3-yl)thiophene-2-carboxamide] showed a remaining activity at 10 µM ([1]; 10 uM) of 93%, a remaining activity at 10 µM ([2]; 10 uM) of 90.1% and a remaining activity at 10 µM ([3]; GRK7, 10 uM, read-out: % Enzyme Activity (relative to DMSO controls)) of 98.3%. The remaining activity at 10 µM ([4]; 10 uM) was 94.9%, the remaining activity at 10 µM ([5]; 10 uM) was 88.5% and the remaining activity at 10 µM ([6]; 10 uM) was 102%.
